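In this assay, cells in 96-well plates receive the compound at five concentrations for 48 hours. Endpoints are linearly interpolated between the surrounding concentrations. TGI: total growth inhibition.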
Columns and labels:
Assay in all cases: inhibition of tumour cell growth, NCI panel, 48 h
RPMI-8226 leukemia = system: RPMI-8226 leukemia
U251 CNS = system: U251 CNS
NCI-H226 lung = system: NCI-H226 lung
NCI-H23 lung = system: NCI-H23 lung
A549 NSCLC = system: A549 NSCLC
CAKI-1 renal = system: CAKI-1 renal
UACC-257 melanoma = system: UACC-257 melanoma
HL-60(TB) leukemia = system: HL-60(TB) leukemia
HCC-2998 colon = system: HCC-2998 colon
MDA-MB-435 = system: MDA-MB-435
OVCAR-5 ovarian = system: OVCAR-5 ovarian
KM12 colon = system: KM12 colon
HCT-15 colon = system: HCT-15 colon
NCI/ADR-RES ovarian = system: NCI/ADR-RES ovarian
UO-31 renal = system: UO-31 renal
HCT-116 colon = system: HCT-116 colon
PC-3 prostate = system: PC-3 prostate
SF-268 CNS = system: SF-268 CNS
IGROV1 ovarian = system: IGROV1 ovarian
A498 renal = system: A498 renal

Structure (SMILES) | TGI (RPMI-8226 leukemia) [µM] | TGI (U251 CNS) [µM] | TGI (NCI-H226 lung) [µM] | TGI (NCI-H23 lung) [µM] | TGI (A549 NSCLC) [µM] | TGI (CAKI-1 renal) [µM] | TGI (UACC-257 melanoma) [µM] | TGI (HL-60(TB) leukemia) [µM] | TGI (HCC-2998 colon) [µM] | TGI (MDA-MB-435) [µM] | TGI (OVCAR-5 ovarian) [µM] | TGI (KM12 colon) [µM] | TGI (HCT-15 colon) [µM] | TGI (NCI/ADR-RES ovarian) [µM] | TGI (UO-31 renal) [µM] | TGI (HCT-116 colon) [µM] | TGI (PC-3 prostate) [µM] | TGI (SF-268 CNS) [µM] | TGI (IGROV1 ovarian) [µM] | TGI (A498 renal) [µM]
Cc1n[nH]c(=O)n1C1CCCC1 | > 100 | > 100 | > 100 | > 100 | > 100 | > 100 | > 100 | > 100 | > 100 | > 100 | > 100 | > 100 | > 100 | > 100 | > 100 | > 100 | > 100 | > 100 | > 100 | > 100
COC(=O)[C@H](Cc1ccccc1)NC(=O)N1CCCN(C(=O)N[C@@H](Cc2ccccc2)C(=O)OC)CCCN(C(=O)N[C@@H](Cc2ccccc2)C(=O)OC)CCC1 | > 100 | 32.8 | 31.5 | 53.3 | 76.4 | > 100 | 35.5 | 69.2 | 38.6 | 54.7 | 33 | > 100 | 63.4 | 74.7 | 29.4 | 38.9 | 31.1 | 34 | 31.3 | 44.3
Cc1ccc(Cc2n[nH]c(=O)n2/N=C\CC/C=N\n2c(Cc3ccc(C)cc3)n[nH]c2=O)cc1 | > 100 | 53.7 | 65.3 | 84.6 | > 100 | > 100 | > 100 | > 100 | > 100 | > 100 | > 100 | > 100 | > 100 | 49.9 | > 100 | > 100 | > 100 | 50.9 | > 100 | > 100
CC1=NOC2(C1)C(=O)Nc1ccccc12 (configuration not stated) | > 100 | > 100 | > 100 | > 100 | > 100 | > 100 | > 100 | > 100 | > 100 | > 100 | > 100 | > 100 | > 100 | > 100 |  | > 100 | > 100 | > 100 | > 100 | 96.4
Cc1ccc(O)c(C(c2ccc([N+](=O)[O-])cc2)c2cc(C)ccc2O)c1 | 29.8 | 48.8 | 39.9 | 21.5 | 25.6 | 28.6 | 28.4 | 7.61 | 9.66 | 28.5 | 28.9 | 20.7 | 23.8 | 28.7 | 15.2 | 40.6 | 14.3 | 22 | 25.2 | 43
Cc1nc2ccc(Cl)cc2c2c1CCS2 | 71.4 | > 100 | > 100 | > 100 | > 100 | > 100 | > 100 | 65 | > 100 | > 100 | > 100 | > 100 | > 100 | > 100 | > 100 | > 100 | > 100 | > 100 | > 100 | 99.2
Cc1ccc(Cc2n[nH]c(=O)n2-c2ccccc2)cc1 | 76 | > 100 | > 100 | > 100 | > 100 | > 100 | > 100 | > 100 | > 100 | > 100 | > 100 | > 100 | > 100 | > 100 | > 100 | > 100 | > 100 | > 100 | > 100 | > 100
C=C1[C@H](OC(=O)C(C)C)[C@]23CC4(O)[C@@H]5[C@@]6(C)CCC[C@]57C([C@@H]2C[C@@]1(O)[C@H](O)[C@@H]73)N4C6 | > 100 | > 100 | > 100 | > 100 | > 100 | > 100 | > 100 | > 100 | 72.3 | > 100 | > 100 | > 100 | > 100 | > 100 | > 100 | > 100 | > 100 | > 100 | > 100 | > 100
CCN(CC)c1ccc(/C=C2/C[N+](C)(C)C/C(=C/c3ccc(N(CC)CC)cc3)C2=O)cc1 | 1.24 | 9.24 | 17.2 | 10.3 | > 100 | > 100 | 6 | 2.16 | 6.25 | 3.69 | 50.4 | 2.91 | > 100 | > 100 | > 100 | 7.77 | 35.7 | 11.2 | 6.57 | > 42.2
CC(C)c1nc2cc(C(F)(F)F)ccc2[nH]c1=O | > 100 | > 100 | > 100 | > 100 | > 100 | > 100 | > 100 | > 100 | > 100 | > 100 | > 100 | > 100 | > 100 | > 100 | > 100 | > 100 | > 100 | > 100 | > 100 | > 100
Cn1c(N)c(C(N)=O)[nH]c1=S | > 100 | > 100 | > 100 | > 100 | > 100 |  |  | > 100 | > 100 | > 100 | > 100 | > 100 | > 100 | > 100 | > 100 |  | > 100 | > 100 | > 100 | > 100
COC(=O)[C@@H]1C=C[C@H](OC2OC(COC(C)=O)C(OC(C)=O)C(OC(C)=O)C2OC(C)=O)n2c(=O)c3ccccc3c(=O)n21 (some centres not stated) | 35.6 | 25.1 | 46.3 | 39.9 | 47.4 | 13 | 51.2 | 30.2 | 29.6 | 23 | 29.6 | 27.4 | 22.7 | 56.7 | 27.5 | 22.8 | 25.3 |  | 33.3 | 32.6
CN(C)c1ccc(/C=C(\NC(=O)c2ccccc2)C(=O)NCC(=O)O)cc1 | > 100 | > 100 | > 100 | > 100 | > 100 | > 100 | > 100 | > 100 | > 100 | > 100 | > 100 | > 100 | > 100 | > 100 | > 100 | > 100 | > 100 | > 100 | > 100 | > 100
CCOC(=O)C1C(c2ccc(OC)cc2)c2c([nH]n(-c3ccccc3)c2=O)CC1(O)OCC (configuration not stated) | > 100 | > 100 |  | > 100 | > 100 | > 100 | > 100 | 15 | > 100 | > 100 | > 100 | > 100 | > 100 | > 100 | > 100 | > 100 | > 100 | > 100 | > 100 | > 100
O=S(=O)(O)CCCC1S(=O)(=O)OCCOS1(=O)=O | > 100 | > 100 | > 100 | > 100 |  | > 100 | > 100 | > 100 | > 100 | > 100 | > 100 | > 100 | > 100 | > 100 | > 100 | > 100 | > 100 | > 100 | > 100 | > 100
CC(C)(C)n1c(=O)[nH]n(C2NN=Cc3cccc4cccc2c34)c1=O (configuration not stated) | 74.6 | > 100 | > 100 | > 100 | 63.4 | > 100 | > 100 | 42.1 | > 100 | > 100 | > 100 | > 100 | > 100 | > 100 | 70.3 | > 100 | > 100 | > 100 |  | 64.9
O=C(Nc1nc(C23CC4CC(CC(C4)C2)C3)cs1)c1c(O)c2ccccc2[nH]c1=O | > 100 | > 100 | > 100 | > 100 | > 100 | > 100 | > 100 | > 100 | > 100 | > 100 | > 100 | > 100 | > 100 | > 100 | > 100 | > 100 | > 100 | > 100 | > 100 | > 100
C=CCOC(=O)Cn1cc(C)c(=O)[nH]c1=O | > 100 | > 100 | > 100 | > 100 | > 100 | > 100 | > 100 | > 100 | > 100 | > 100 |  | > 100 | > 100 | > 100 | > 100 | > 100 | > 100 | > 100 | > 100 | > 100
CCCN1CC=C(c2cc(C(=O)OCC)[nH]c2-c2cc(C)no2)C1=O | > 100 | > 100 | > 100 | > 100 | > 100 | > 100 | > 100 | > 100 | > 100 | > 100 | > 100 | > 100 | > 100 | > 100 | > 100 | > 100 | > 100 | > 100 | > 100 | > 100
COc1ccc(/C=C/c2sc3ccccc3[n+]2CCCCI)cc1OC | > 10 | > 10 | > 10 | > 10 | > 10 | > 10 | > 10 | 7.48 | > 10 | > 10 | > 10 | > 10 | > 10 | > 10 | > 10 | > 10 | > 10 | > 10 | > 10 | > 10
Cn1ccc(C(=O)N2CCSC2=S)c(OCc2ccccc2)c1=O | > 100 | > 100 | > 100 | > 100 | > 100 | > 100 | > 100 | > 100 | > 100 | > 100 |  | > 100 | > 100 | > 100 | > 100 | > 100 | > 100 | > 100 |  | > 100
n1onc2c1NC1Nc3nonc3NC1N2 (configuration not stated) | > 100 | > 100 | > 100 | > 100 | > 100 | > 100 |  | > 100 | > 100 | > 100 | > 100 | > 100 | > 100 | > 100 | > 100 | > 100 | > 100 | > 100 | > 100 | > 100
C=[N+](CNC(=O)CNC(=O)C(Cc1ccc([N+](=O)[O-])cc1)NC(=O)OC(C)(C)C)C(=O)CNC(=O)C(Cc1ccc([N+](=O)[O-])cc1)NC(=O)OC(C)(C)C (configuration not stated) | 50.4 | > 100 | > 100 | > 100 | > 100 | > 100 |  | 46.5 | > 100 | 62.7 | > 100 | > 100 | > 100 | > 100 | > 100 | > 100 | > 100 | 61.8 | > 100 | > 100
S=C1Cc2c(-c3ccc(Cl)cc3)cc(-c3ccccc3)nc2-c2ccccc2N1 | > 100 | > 100 | 55.7 | 27.2 | 25.5 | 13.1 | 36.1 | > 100 | > 100 | 46 | 92.9 | 50.9 | > 100 | 48.6 | 35.8 | 28.8 | 44 | 34.6 | 14 | 33

Reference: PubChem BioAssay (NCI)
